Assay results taken from US20050026133A1, “Cryopreservation medium for primate embryo stem cells and cryopreservation method” (ASAHI TECHNO GLASS CORPORATION, priority 2002, published 2005).

How the values were obtained:
[1] = tested on: Cynomolgus monkey ES cells; test: Cell count per Petri dish of post-thaw ES cell culture after trypsinization; assay type: cell-based
Experimental: (§1) After 2, 4, 6 and 7 days, ES cell proliferation was assessed by alkaline phosphatase assay as described in Example 1. After 7 days of culture, the cells on each Petri dish was dissociated by tripsinization and counted.
as §1, with “8” for “7”, “counted. Colonies of 1 mm or larger formed on the Petri dishes for the respective concentrations were visually counted.” for “counted.”
(§2) After 2, 4, 6 and 8 days, ES cell proliferation was assessed by alkaline phosphatase assay as described in Example 1. After 8 days of culture, the cells on each Petri dish was dissociated by tripsinization and counted.
After 2, 4 and 6 days of culture, ES cell proliferation was assessed by alkaline phosphatase assay as described in Example 1. After 6 days of culture, the cells on each Petri dish was dissociated by tripsinization and counted.

[2] = tested on: embryonic stem cells and embryonic carcinoma cells; conditions: DMSO concentration of above 1% (W/V); cited from earlier work
[3] = tested on: Cynomolgus monkey ES cells; test: Alkaline phosphatase activity (ES cell marker) of post-thaw ES cells in culture, fluorometry with 4-methylumbelliferyl phosphate; assay type: cell-based; conditions: for alkaline phosphatase activity of post-thaw ES cells (successful cryopreservation): 8 days of culture
Experimental: Cynomolgus monkey ES cells were subcultured for 33 passages and dissociated into cell suspension from three 90-mm Petri dishes, and the cell suspension was centrifuged at 1,000 rpm for 5 minutes. The supernatant was removed to obtain a cell precipitate. The cell precipitate was resuspended in 1 ml of a cryopreservation medium containing 20% (V/V) [=22% (W/V)] of DMSO, 40% (V/V) of a serum replacement containing albumin, insulin and transferrin (Knockout Serum Replacement; Invitrogen) [hereinafter referred to as serum replacement (A)] and 40% (V/V) of DMEM:Ham F12=1:1 medium [hereinafter referred to as medium (A)] supplemented with 3 g/l of glucose, 0.5 g/l of CaCl2 0.15 g/l of MgSO4. The cell suspension was transferred to a serum tube, refrigerated to −80° C. at a rate of about 1° C./min in Mr. Frosty is (Nalgen) and then stored in a liquid nitrogen container for about 6 days. The cells were thawed, plated in 60-mm Petri dishes in duplicate and cultured in the medium described in Suemori et al. (2001 Dev. Dyn. Oct; 222(2):273-9). ES cell proliferation was investigated by following the time course of the activity of alkaline phosphatase, which is a marker of ES cells. After 3, 5 and 7 days, the medium was removed from the dishes by aspiration, and the cells were washed with 1 ml of 30 mM Hepes buffer containing 0.1 mg/l of CaCl2 and 0.1 mg/l of MgSO4(7H2O) and treated with 1 ml of 0.2 mM 4-methylumbelliferyl phosphate solution in the same buffer in an incubator at 37° C. for 1 hour. 0.8 ml portions of the reaction mixture were transferred to a 24-well microplate and analyzed by fluorometry at Ex355/Em460. Fluorescence per 1 ml was calculated and plotted. As a control, the alkaline phosphatase activity of the same feeder cells as used during subcultures of ES cells was measured.

[4] = tested on: Cynomolgus monkey ES cells; test: Post-thaw ES cell colony formation, proliferation to subculturable stage, staining with Vector Red alkaline phosphatase substrate; assay type: cell-based
Experimental: After completion of the culture, the cells in each Petri dish were fixed with paraformaldehyde and ethanol and stained with Vector Red alkaline phosphatase substrate (Vector Labs).
After completion of the culture, the cells in each Petri dish were fixed with paraformaldehyde and ethanol and stained with vector Red alkaline phosphatase substrate (Vector Labs). […] Similar staining of the feeder cells gave no stained colonies (FIG. 11).
as §2, with “counted. Colonies of 1 mm or larger formed on the Petri dishes for the respective concentrations were visually counted.” for “counted.”

[5] = tested on: chicken lung cells; conditions: DMSO or glycerin concentrations from 15 to 20%; cited from earlier work
[6] = tested on: Cynomolgus monkey ES cells; test: Differentiation potency of cryopreserved ES cells: teratoma formation after intraperitoneal injection into SCID mice; assay type: in vivo; conditions: Example 3; cells cryopreserved in 20% (V/V) [=22% (W/V)] DMSO, 40% serum replacement (A), 40% medium (A); 10 passages after thawing; 5×10^6 cells i.p. in SCID mice, about 6 weeks
Experimental: Cynomolgus monkey ES cells subcultured for 35 passages were harvested from three 90-mm Petri dishes and treated by a method similar to that employed in Example 1 to give a cell precipitate. The cell precipitate was resuspended in 1 ml of a cryopreservation medium consisting of 20% (V/V) [=22% (W/V)] of DMSO, 40% (V/V) of serum replacement (A), 40% (V/V) of medium (A). The cell suspension was transferred to a serum tube, refrigerated to −80° C. at a rate of about 1° C./min in Mr. Frosty (Nalgen) and stored in a liquid nitrogen container for 5 day. The cells were thawed and continuously subcultured in duplicate in 35-mm Petri dishes in the medium described in Suemori et al. (2001 Dev. Dyn. Oct;222(2);273-9). Differentiation potency was assessed after 10 passages. The cells were dissociated from the Petri dishes, and 5×10^6 cells were suspended in 0.5 ml of a phosphate buffer and intraperitoneally injected into SCID mice. The mice were fed for about 6 weeks, and teratomas were isolated from the abdomen.

In the case of `C[S+](C)[O-]` [DMSO, dimethyl sulfoxide], the “cell count per Petri dish in the 7 day culture versus comparative experiment (10% or 50% (V/V) DMSO)” value ([1]; Example 4, DMSO 15% (V/V) [=16.5% (W/V)] and 20% (V/V) [=22% (W/V)]) is reported as “remarkably greater”, the “cell count per Petri dish after 8 days of culture versus comparative experiment (10% (V/V) DMSO)” value ([1]; Example 6, 20% (V/V) DMSO, storage cell densities 1.0, 2.0, 4.0×10^7 cells/2 ml) is reported as “greater than that in the comparative experiment” and the “cryopreservation success by cell count per Petri dish after 7 days of culture” value ([1]; Example 7, 20% (V/V) DMSO with 10, 40 or 80% (V/V) serum replacement (A) or fetal bovine serum) is reported as “Successful cryopreservation was confirmed at any supplement concentrations”. For the same compound, the “cell count per Petri dish after 6 days of culture, 20% (V/V) DMSO relative to 10% (V/V) DMSO” value ([1]; Example 8, 20% serum replacement (A), 2.2×10^7 cells/2 ml, stored 1 day) was 6 times, the “time in culture at which cells begin to differentiate” value [2] was 4 days and the “alkaline phosphatase activity of post-thaw ES cells versus feeder cells” value ([3]; Example 1, cryopreservation medium with 20% (V/V) [=22% (W/V)] DMSO, 40% serum replacement (A), 40% medium (A), stored about 6 days, culture 3, 5, 7 days) was “significantly higher alkaline phosphatase activity than the feeder cells”. The “alkaline phosphatase activity of post-thaw ES cells versus feeder cells” value ([3]; Example 2, 20% (V/V) [=22% (W/V)] DMSO, 40% serum replacement (A), 40% medium (A), stored 1 day, culture 2, 4, 6, 7 days) was “significantly higher alkaline phosphatase activity than the feeder cells”, the “alkaline phosphatase activity of post-thaw ES cells versus feeder cells” value ([3]; Example 2 comparative, 10% (V/V) DMSO, 45% serum replacement (A), 45% medium (A), after 7 days) was “slightly exceeded the feeder cells in alkaline phosphatase activity” and the “time course of alkaline phosphatase activity of post-thaw ES cells” value ([3]; Example 4, DMSO 12, 15, 20 or 30% (V/V) [13.2, 16.5, 22, 33% (W/V)], equal serum replacement (A) and medium (A), 2, 4, 6, 7 days) was “time-dependent increase in alkaline phosphatase activity”. For the same compound, the “rate of increase of alkaline phosphatase activity versus comparative experiment (10% (V/V) DMSO)” value ([3]; Example 6, 20% (V/V) DMSO, storage cell densities 1.0, 2.0, 4.0×10^7 cells/2 ml, stored 18 days) was “alkaline phosphatase activity increased faster at any cell densities than in the comparative experiment”, the “alkaline phosphatase activity of post-thaw ES cells” value ([3]; Example 7, 20% (V/V) DMSO with 10, 40 or 80% (V/V) serum replacement (A) or fetal bovine serum, 2, 4, 6, 7 days) was “alkaline phosphatase activity increased” and the “rate of increase of alkaline phosphatase activity versus comparative experiment (10% (V/V) DMSO)” value ([3]; Example 8, 20% (V/V) [=22% (W/V)] DMSO, 20% serum replacement (A), 60% medium (A), 2, 4, 6 days) was “increased significantly faster”. The “time after thawing until the cells could be subcultured” value ([4]; Example 1, 20% (V/V) DMSO, 40% serum replacement (A), 40% medium (A)) was 1 week, the “colonies stained with Vector Red alkaline phosphatase substrate” value (from here on “colonies stained”) ([4]; Example 1, 20% (V/V) DMSO, after completion of the culture) was “numerous successfully stained colonies” and the “ES cell proliferation and differentiated colonies after post-thaw passage” value ([4]; Example 1, 20% (V/V) DMSO, three-fold dilution followed by 3 days of subculture) was “successful proliferation of ES cells was observed without formation of differentiated colonies”. The “ES cell proliferation and differentiated colonies after 7 days of prolonged culture” value ([4]; Example 2, 20% (V/V) DMSO) was “successful proliferation of ES cells was observed without formation of differentiated colonies”, the “time after thawing until the cultures were able to be subcultured” value ([4]; Example 2, 20% (V/V) DMSO) was 5 days and the “colonies stained” value ([4]; Example 2, 20% (V/V) DMSO, 7 days after thawing) was “numerous successfully stained colonies”. The “ES cell proliferation after 7 days of prolonged culture” value ([4]; Example 2 comparative, 10% (V/V) DMSO) was “proliferation was recognized to a certain degree, though far below that of the cells in the illustrative experiment”, the “reaching the subculturable stage after thawing” value ([4]; Example 2 comparative, 10% (V/V) DMSO, 5 days) was “could not reach the stage at which they were able to be subcultured after 5 days” and the “colonies stained” value ([4]; Example 2 comparative, 10% (V/V) DMSO, 7 days after thawing) was “a few successfully stained colonies were observed”. For the same compound, the “viability of chicken lung cells” value [5] was “did not give high viabilities” and the “tissues found in teratomas (retention of pluripotency)” value [6] was “formation of nerves, muscles and cartilage”.
For `OCC(O)CO` [glycerin], the “cell count per Petri dish in the 8 day culture” value ([1]; Example 5, glycerin 10% (V/V) [=12.6% (W/V)] and 20% (V/V) [=25.2% (W/V)]) was “remarkably great”, the “alkaline phosphatase activity of post-thaw ES cells (successful cryopreservation)” value ([3]; Example 5, glycerin 10, 20 or 30% (V/V) [12.6, 25.2, 37.8% (W/V)], 20% serum replacement (A), balance medium (A)) was “increase in alkaline phosphatase activity after 8 days of culture” and the “alkaline phosphatase activity of post-thaw ES cells (successful cryopreservation)” value ([3]; Example 5 comparative, glycerin 5% (V/V) [=6.3% (W/V)]) was “all the glycerin concentrations but 5% (V/V)”. The “formation of ES cell colonies (1 mm or larger, visually counted)” value ([4]; Example 5, glycerin 10% (V/V) [=12.6% (W/V)] or above, 8 day culture) was “formation of ES cell colonies was confirmed” and the “viability of chicken lung cells” value [5] was “did not give high viabilities”.
